Assay results taken from ChEMBL document CHEMBL3745645, “Synthesis, in vitro antitumor activity, dihydrofolate reductase inhibition, DNA intercalation and structure-activity relationship studies of 1,3,5-triazine analogues” (Bioorg Med Chem Lett, 2016).
Active and inactive are the calls of the source. The calls are words filed in the database; no cut-off is given here.

Experiments:
HCT-116 = test: Cytotoxicity against human HCT116 cells at 10 uM after 48 hrs by SRB assay; format: functional
Calf thymus DNA = test: Binding affinity to calf thymus DNA by UV-vis spectrometric analysis; format: nucleic-acid assay; details: Bos taurus
[1] = Cytotoxicity against human SKOV3 cells at 10 uM after 48 hrs by SRB assay; format: functional; details: SK-OV-3, 48 h, read-out: GI
[2] = Cytotoxicity against human RPMI8226 cells after 48 hrs by SRB assay; format: functional; details: RPMI-8226, 48 h, read-out: LC50 (the source's name)
[3] = Cytotoxicity against human DU145 cells after 48 hrs by SRB assay; format: functional; details: DU-145, 48 h, read-out: LC50 (the source's name)
UACC-62 = test: Cytotoxicity against human UACC62 cells at 10 uM after 48 hrs by SRB assay; format: functional
[4] = Cytotoxicity against human PC3 cells at 10 uM after 48 hrs by SRB assay; format: functional; details: PC-3, 48 h, read-out: GI
SF-295 = test: Cytotoxicity against human SF295 cells at 10 uM after 48 hrs by SRB assay; format: functional
[5] = Cytotoxicity against human LOXIMVI cells after 48 hrs by SRB assay; format: functional; details: LOX IMVI, pooled result: one value given for 9 cell lines, strains, targets or settings
HCC 2998 = test: Cytotoxicity against human HCC2998 cells at 10 uM after 48 hrs by SRB assay; format: functional
BT-549 = test: Cytotoxicity against human BT549 cells at 10 uM after 48 hrs by SRB assay; format: functional
SK-MEL-28 = test: Cytotoxicity against human SK-MEL-28 cells at 10 uM after 48 hrs by SRB assay; format: functional
HL-60(TB) = test: Cytotoxicity against human HL-60(TB) cells at 10 uM after 48 hrs by SRB assay; format: functional
[6] = Cytotoxicity against human IGROV1 cells after 48 hrs by SRB assay; format: functional; details: IGROV-1, 48 h, pooled result: one value given for 7 cell lines, strains, targets or settings
CCRF-CEM [7] = test: Cytotoxicity against human CCRF-CEM cells after 48 hrs by SRB assay; format: functional; details: for GI50 / TGI: pooled result: one value given for 6 cell lines, strains, targets or settings
[8] = Cytotoxicity against human DU145 cells at 10 uM after 48 hrs by SRB assay; format: functional; details: DU-145, 48 h, read-out: GI
786-0 = test: Cytotoxicity against human 786-0 cells after 48 hrs by SRB assay; format: functional; details: 786-0, 48 h, pooled result: one value given for 8 cell lines, strains, targets or settings
COLO 205 = test: Cytotoxicity against human COLO205 cells at 10 uM after 48 hrs by SRB assay; format: functional
MDA-MB-435 = test: Cytotoxicity against human MDA-MB-435 cells at 10 uM after 48 hrs by SRB assay; format: functional
OVCAR-4 = test: (§1) Cytotoxicity against human OVCAR4 cells at 10 uM after 48 hrs by SRB assay; format: functional
HCT-15 = test: Cytotoxicity against human HCT15 cells at 10 uM after 48 hrs by SRB assay; format: functional
TK-10 = test: Cytotoxicity against human TK10 cells at 10 uM after 48 hrs by SRB assay; format: functional
M14 = test: Cytotoxicity against human M14 cells at 10 uM after 48 hrs by SRB assay; format: functional
[9] = Cytotoxicity against human HOP62 cells at 10 uM after 48 hrs by SRB assay; format: functional; details: HOP-62, 48 h, read-out: GI
[10] = Cytotoxicity against human SNB19 cells at 10 uM after 48 hrs by SRB assay; format: functional; details: SNB-19, 48 h, read-out: GI
NCI-H226 = test: Cytotoxicity against human NCI-H226 cells at 10 uM after 48 hrs by SRB assay; format: functional
SN12C = test: Cytotoxicity against human SN12C cells at 10 uM after 48 hrs by SRB assay; format: functional
RPMI-8226 = test: Cytotoxicity against human RPMI8226 cells at 10 uM after 48 hrs by SRB assay; format: functional
UACC-257 = test: Cytotoxicity against human UACC257 cells at 10 uM after 48 hrs by SRB assay; format: functional
A549 = test: Cytotoxicity against human A549 cells at 10 uM after 48 hrs by SRB assay; format: functional
CCRF-CEM [11] = test: Cytotoxicity against human CCRF-CEM cells at 10 uM after 48 hrs by SRB assay; format: functional
[12] = Cytotoxicity against human NCI-ADR-RES cells at 10 uM after 48 hrs by SRB assay; format: functional; details: read-out: GI
[13] = Cytotoxicity against human COLO205 cells after 48 hrs by SRB assay; format: functional; details: COLO 205, 48 h, pooled result: one value given for 7 cell lines, strains, targets or settings
MOLT-4 = test: Cytotoxicity against human MOLT4 cells at 10 uM after 48 hrs by SRB assay; format: functional
OVCAR-5 = test: Cytotoxicity against human OVCAR5 cells at 10 uM after 48 hrs by SRB assay; format: functional
[14] = as §1; format: functional; details: OVCAR-4, 48 h, read-out: GI
U-251 = test: Cytotoxicity against human U251 cells at 10 uM after 48 hrs by SRB assay; format: functional

Question: What does the source list for `Cc1nc2cc(Nc3nc(Nc4ccc(F)cc4)nc(N4CCN(C)CC4)n3)ccc2n1Cc1ccccc1`?
Answer: growth inhibition (GI) (HCT-116): Active; Ka (Calf thymus DNA): 2.92 ×10⁴ /M; inhibition of growth at 10 µM [1]: 31.3%; CC50 [2]: 8.47 µM; CC50 [3]: 20.5 µM; growth inhibition (GI) (UACC-62): Active; inhibition of growth at 10 µM [4]: 80.3%; growth inhibition (GI) (SF-295): Active; GI50 [5]: 1.81 µM; LC50 [5]: 6.27 µM; TGI [5]: 3.37 µM; growth inhibition (GI) (HCC 2998): Active; growth inhibition (GI) (BT-549): Active; growth inhibition (GI) (SK-MEL-28): Active; growth inhibition (GI) (HL-60(TB)): Active; GI50 [6]: 2.16 µM; LC50 (concentration killing 50% of cells) [6]: 15.5 µM; TGI [6]: 5.25 µM; LC50 (CCRF-CEM [7]): 8.47 µM; GI50 (CCRF-CEM [7]): 1.43 µM; TGI (CCRF-CEM [7]): 4.04 µM; inhibition of growth at 10 µM [8]: 83.3%; GI50 (786-0): 1.77 µM; LC50 (concentration killing 50% of cells) (786-0): 9.66 µM; TGI (786-0): 3.81 µM; growth inhibition (GI) (COLO 205): Active; inhibition of growth at 10 µM (MDA-MB-435; MDA-MB-435, 48 h, read-out: GI): 99.8%; growth inhibition (GI) (OVCAR-4): Active; growth inhibition (GI) (HCT-15): Active; growth inhibition (GI) (TK-10): Active; growth inhibition (GI) (M14): Active; inhibition of growth at 10 µM [9]: 41.8%; inhibition of growth at 10 µM [10]: 55.8%; inhibition of growth at 10 µM (NCI-H226; NCI-H226, 48 h, read-out: GI): 35%; inhibition of growth at 10 µM (SN12C; read-out: GI): 65.1%; growth inhibition (GI) (RPMI-8226): Active; growth inhibition (GI) (UACC-257): Active; inhibition of growth at 10 µM (A549; A549, 48 h, read-out: GI): 92.8%; growth inhibition (GI) (CCRF-CEM [11]): Active; inhibition of growth at 10 µM [12]: 56.9%; GI50 [13]: 1.66 µM; LC50 [13]: 7.15 µM; TGI [13]: 3.44 µM

Question: With `Cc1nc2cc(Nc3nc(Nc4ccc(F)cc4)nc(N4CCCC4)n3)ccc2n1Cc1ccccc1` as the compound, how does the “growth inhibition (GI)” value (HCT-116) read?
Answer: The value was “Active”.

Question: What about the Ka (Calf thymus DNA) of the same compound?
Answer: Its Ka is 5.23 ×10⁴ /M.

Question: And the CC50 [2]?
Answer: The CC50 was over 100 µM.

Question: What about the CC50 [3] of the same compound?
Answer: The CC50 was 6 µM.

Question: What about the “growth inhibition (GI)” value (MOLT-4) of the same compound?
Answer: Its value is “Active”.

Question: What about the “growth inhibition (GI)” value (UACC-62) of the same compound?
Answer: Its value is “Active”.

Question: What about the “growth inhibition (GI)” value (SF-295) of the same compound?
Answer: Its value is “Active”.

Question: What about the GI50 [5] of the same compound?
Answer: Its GI50 is 1.81 µM.

Question: What about the LC50 [5] of the same compound?
Answer: Its LC50 is 13.7 µM.

Question: And the TGI [5]?
Answer: Its TGI is 3.68 µM.

Question: What about the “growth inhibition (GI)” value (OVCAR-5) of the same compound?
Answer: The value was “Active”.

Question: What about the “growth inhibition (GI)” value (HCC 2998) of the same compound?
Answer: The value was “Active”.

Question: And the “growth inhibition (GI)” value (BT-549)?
Answer: Its value is “Active”.

Question: What about the “growth inhibition (GI)” value (SK-MEL-28) of the same compound?
Answer: Its value is “Active”.

Question: And the “growth inhibition (GI)” value (HL-60(TB))?
Answer: Its value is “Active”.

Question: What about the GI50 [6] of the same compound?
Answer: The GI50 was 1.9 µM.

Question: What about the LC50 (concentration killing 50% of cells) [6] of the same compound?
Answer: The LC50 (concentration killing 50% of cells) was 11 µM.

Question: And the TGI [6]?
Answer: Its TGI is 4.01 µM.

Question: And the LC50 (CCRF-CEM [7])?
Answer: Its LC50 is over 100 µM.

Question: What about the GI50 (CCRF-CEM [7]) of the same compound?
Answer: The GI50 was 2.54 µM.

Question: And the TGI (CCRF-CEM [7])?
Answer: Its TGI is 5.28 µM.

Question: What about the GI50 (786-0) of the same compound?
Answer: Its GI50 is 1.75 µM.

Question: And the LC50 (concentration killing 50% of cells) (786-0)?
Answer: Its LC50 (concentration killing 50% of cells) is 1.26 µM.

Question: And the TGI (786-0)?
Answer: Its TGI is 3.56 µM.

Question: And the “growth inhibition (GI)” value (COLO 205)?
Answer: Its value is “Active”.

Question: What about the “growth inhibition (GI)” value (MDA-MB-435) of the same compound?
Answer: The value was “Active”.

Question: And the inhibition of growth at 10 µM [14]?
Answer: Its inhibition of growth at 10 µM is 95.2%.

Question: And the “growth inhibition (GI)” value (HCT-15)?
Answer: The value was “Active”.

Question: What about the “growth inhibition (GI)” value (TK-10) of the same compound?
Answer: Its value is “Active”.

Question: What about the “growth inhibition (GI)” value (M14) of the same compound?
Answer: Its value is “Active”.

Question: What about the inhibition of growth at 10 µM [10] of the same compound?
Answer: Its inhibition of growth at 10 µM is 66.4%.

Question: What about the “growth inhibition (GI)” value (NCI-H226) of the same compound?
Answer: The value was “Active”.

Question: What about the “growth inhibition (GI)” value (SN12C) of the same compound?
Answer: Its value is “Active”.

Question: What about the “growth inhibition (GI)” value (RPMI-8226) of the same compound?
Answer: The value was “Active”.

Question: What about the “growth inhibition (GI)” value (UACC-257) of the same compound?
Answer: Its value is “Active”.

Question: And the “growth inhibition (GI)” value (A549)?
Answer: Its value is “Active”.

Question: What about the “growth inhibition (GI)” value (U-251) of the same compound?
Answer: The value was “Active”.

Question: And the “growth inhibition (GI)” value (CCRF-CEM [11])?
Answer: Its value is “Active”.

Question: What about the GI50 [13] of the same compound?
Answer: The GI50 was 1.81 µM.

Question: And the LC50 [13]?
Answer: The LC50 was 6.93 µM.

Question: And the TGI [13]?
Answer: Its TGI is 3.54 µM.
